In patent publication US4559323A, “A41030 Antibiotics” (Eli Lilly and Company, priority 1984, dated 1985):
Read-outs that look alike come from different tables or passages of the source.

Tests used:
[1] = test system: Clostridium septicum; assay: Agar-dilution MIC (anaerobes); type: cell-based; details: Table 14; Clostridium septicum 1128
[2] = test system: Klebsiella pneumoniae; assay: Agar-dilution MIC; type: cell-based; details: Table 17; 24 hours; Klebsiella pneumoniae X26
[3] = test system: Fusobacterium necrophorum; assay: Agar-dilution MIC (anaerobes); type: cell-based; details: Table 14; Fusobacterium necrophorum 6054A
[4] = test system: Clostridium difficile; type: cell-based; details: Table 14; Clostridium difficile 2994
[5] = test system: Salmonella typhi; assay: Agar-dilution MIC; type: cell-based; details: Table 17, 24 hours
[6] = test system: Bacteroides fragilis; assay: Agar-dilution MIC (anaerobes); type: cell-based; details: Table 14
Source text: (§1) The agar-dilution procedure described by the International Collaborative study (ICS) group was used to determine the minimum inhibitory concentrations (MIC's).

[7] = test system: Clostridium difficile; type: cell-based
Source text: The A41030 antibiotic factors A, B, C, D, E, F, and G, are also active against a number of strains of Clostridium difficile, as determined by the agar-dilution method.

[8] = test system: Fusobacterium symbiosum; assay: Agar-dilution MIC (anaerobes); type: cell-based; details: Table 14; Fusobacterium symbiosum 1470
[9] = test system: Peptococcus asaccharolyticus; assay: Agar-dilution MIC (anaerobes); type: cell-based; details: Table 14; Peptococcus asaccharolyticus 1302
[10] = test system: Hemophilus influenzae; assay: Agar-dilution MIC; type: cell-based; details: Table 17, 24 hours
[11] = Solubility in solvents; type: physicochemical; details: solvents as named
Source text: The seven antibiotic factors are recovered from the fermentation and are obtained as a mixture, the A41030 complex. It will be recognized that the ratio of the factors in the A41030 complex will vary, depending upon the fermentation conditions used. The individual factors […], and G are separated and isolated as individual compounds, as hereinafter described.

[12] = test system: Eubacterium aerofaciens; assay: Agar-dilution MIC (anaerobes); type: cell-based; details: Table 14; Eubacterium aerofaciens 1235
[13] = test system: Bacteroides melaninogenicus; assay: Agar-dilution MIC (anaerobes); type: cell-based; details: Table 14
[14] = test system: B. thetaiotaomicron; type: cell-based; details: Table 14; Bacteroides thetalotaomicron 1438
Source text: as §1

[15] = test system: Peptostreptococcus anaerobius; assay: Agar-dilution MIC (anaerobes); type: cell-based; details: Table 14; Peptostreptococcus anaerobius 1428
[16] = test system: Bacteroides corrodens; assay: Agar-dilution MIC (anaerobes); type: cell-based; details: Table 14; Bacteroides corrodens 1874
[17] = test system: Streptococcus pneumoniae; assay: Agar-dilution MIC; type: cell-based; details: Table 17; 24 hours; Streptococcus pneumoniae Park I
Source text: as §1

[18] = test system: Streptococcus pyogenes; assay: Agar-dilution MIC; type: cell-based; details: Table 17; 24 hours; Streptococcus pyogenes C203
Source text: as §1

[19] = test system: Streptococcus sp. (Group D); assay: Agar-dilution MIC; type: cell-based; details: Table 17, 24 hours
Source text: as §1

[20] = test system: Staphylococcus epidermidis; assay: Agar-dilution MIC; type: cell-based; details: Table 17, 24 hours
Source text: as §1

[21] = Electrometric titration (pKa); type: physicochemical; details: electrometric titration in 66% dimethylformamide in water
[22] = test system: Peptococcus prevoti; assay: Agar-dilution MIC (anaerobes); type: cell-based; details: Table 14; Peptococcus prevoti 1281
[23] = test system: Propionibacterium acnes; assay: Agar-dilution MIC (anaerobes); type: cell-based; details: Table 14; Propionibacterium acnes 79
Source text: Antibiotic A41030 factors A, B and C have also been tested and found to be active against a genus of anaerobic bacteria identified as Propionibacterium acnes.

[24] = test system: Peptostreptococcus intermedius; assay: Agar-dilution MIC (anaerobes); type: cell-based; details: Table 14; Peptostreptococcus intermedius 1264
[25] = test system: Bacteroides vulgatis; assay: Agar-dilution MIC (anaerobes); type: cell-based; details: Table 14; Bacteroides vulgatis 1211
[26] = test system: Clostridium perfringens; type: cell-based; details: Table 14; Clostridium perfringens 81
[27] = test system: Staphylococcus aureus; assay: Agar-dilution MIC; type: cell-based
[28] = test system: S. pyogenes; assay: Experimental bacterial infection in mice, subcutaneous ED50; type: in vivo; details: two doses subcutaneously
Procedure: (§2) All of the A41030 factors tested have shown in vivo antimicrobial activity against experimental bacterial infections. When two doses of test compound were administered subcutaneously to mice in illustrative infections, the activity observed is measured as an ED50 value [effective dose in mg./kg. to protect fifty percent of the test animals: See Warren Wick, et al., J. Bacteriol. 81, 233-235 (1961)].

[29] = test system: S. pneumoniae; assay: as above; type: in vivo; details: two doses subcutaneously
Procedure: as §2

[30] = test system: Staph. aureus; assay: as above; type: in vivo; details: two doses subcutaneously
Procedure: as §2

[31] = test system: Escherichia coli; assay: Agar-dilution MIC; type: cell-based; details: Table 17; 24 hours; Escherichia coli TEM
[32] = Table 16, C. difficile WAL-2112
[33] = Table 16, C. difficile WAL-3657
[34] = Table 16, C. difficile WAL-4268
[35] = Bacteroides melaninogenicus 2736
[36] = Staphylococcus epidermidis EPI1
[37] = Staphylococcus epidermidis EPI2

A41030 factor G
MIC [1]: 2 µg/mL | MIC [2]: 64 µg/mL | MIC [3]: 2 µg/mL | MIC [4]: 2 µg/mL | MIC ([5]; Salmonella typhi 1335): > 128 µg/mL | MIC ([5]; Salmonella typhi X514): > 128 µg/mL | MIC ([6]; Bacteroides fragilis 111): 32 µg/mL | MIC ([6]; Bacteroides fragilis 1877): 32 µg/mL | MIC ([6]; Bacteroides fragilis 1936B): 64 µg/mL | MIC ([7]; Table 16, C. difficile 78): 1.0 µg/mL | MIC ([7]; Table 16, C. difficile 107B): 1.0 µg/mL | MIC ([7]; Table 16, C. difficile 111F): 1.0 µg/mL | MIC ([7]; Table 16, C. difficile 1153): 1.0 µg/mL | MIC ([7]; Table 16, C. difficile 2634): 1.0 µg/mL | MIC ([7]; Table 16, C. difficile 3424-5B): 1.0 µg/mL | MIC ([7]; Table 16, C. difficile 3816): 1.0 µg/mL | MIC ([7]; Table 16, C. difficile 3950): 1.0 µg/mL | MIC ([7]; Table 16, C. difficile 6890): 1.0 µg/mL | MIC ([7]; Table 16, C. difficile 8484): 1.0 µg/mL | MIC ([7]; Table 16, C. difficile A-194): 1.0 µg/mL | MIC ([7]; Table 16, C. difficile A-195): 1.0 µg/mL | MIC ([7]; Table 16, C. difficile A-196): 1.0 µg/mL | MIC ([7]; Table 16, C. difficile A-279): 1.0 µg/mL | MIC ([7]; Table 16, C. difficile A-280): 1.0 µg/mL | MIC ([7]; Table 16, C. difficile A-281): 1.0 µg/mL | MIC [7, 32]: 1.0 µg/mL | MIC [7, 33]: 1.0 µg/mL | MIC [7, 34]: 1.0 µg/mL | MIC [8]: 2 µg/mL | MIC [9]: 1.0 µg/mL | MIC ([10]; Haemophilus influenzae 76): 32 µg/mL | MIC ([10]; Haemophilus influenzae C.L.): 32 µg/mL | Solubility [11]: soluble in the same solvents as is factor A | MIC [12]: 2 µg/mL | MIC [13, 35]: 64 µg/mL | MIC [14]: 64 µg/mL | MIC [15]: ≤ 0.5 µg/mL | MIC [16]: 32 µg/mL | MIC [17]: 2 µg/mL | MIC [18]: 2 µg/mL | MIC ([19]; Streptococcus sp. Group D 9960): 4 µg/mL | MIC ([19]; Streptococcus sp. Group D X66): 4 µg/mL | MIC [20, 36]: 0.5 µg/mL | MIC [20, 37]: 0.5 µg/mL | pKa, first titratable group [21]: about 5.4 | pKa, second titratable group [21]: ~7.0 | MIC [22]: 2 µg/mL | MIC [23]: 1.0 µg/mL | MIC [24]: 2 µg/mL | MIC [25]: 64 µg/mL | MIC [26]: 2 µg/mL

A41030 factor D
MIC [1]: 0.25 µg/mL | MIC [2]: 128 µg/mL | MIC [3]: ≤ 0.125 µg/mL | MIC ([5]; Salmonella typhi 1335): > 128 µg/mL | MIC ([5]; Salmonella typhi X514): > 128 µg/mL | MIC [27]: 0.25 µg/mL | MIC ([27]; Table 17, 24 hours, Staphylococcus aureus S13E): 0.25 µg/mL | MIC ([27]; Table 17, 24 hours, Staphylococcus aureus V41): 0.25 µg/mL | MIC ([27]; Table 17, 24 hours, Staphylococcus aureus X400): 0.25 µg/mL | MIC ([6]; Bacteroides fragilis 111): 32 µg/mL | MIC ([6]; Bacteroides fragilis 1877): 32 µg/mL | MIC ([6]; Bacteroides fragilis 1936B): 32 µg/mL | MIC [7]: 0.5 µg/mL | MIC ([7]; Table 16, C. difficile 78): ≤ 0.25 µg/mL | MIC ([7]; Table 16, C. difficile 107B): ≤ 0.25 µg/mL | MIC ([7]; Table 16, C. difficile 111F): ≤ 0.25 µg/mL | MIC ([7]; Table 16, C. difficile 1153): 1.0 µg/mL | MIC ([7]; Table 16, C. difficile 2634): 0.5 µg/mL | MIC ([7]; Table 16, C. difficile 3424-5B): 0.5 µg/mL | MIC ([7]; Table 16, C. difficile 3816): 0.5 µg/mL | MIC ([7]; Table 16, C. difficile 3950): 0.5 µg/mL | MIC ([7]; Table 16, C. difficile 6890): 0.5 µg/mL | MIC ([7]; Table 16, C. difficile 8484): ≤ 0.25 µg/mL | MIC ([7]; Table 16, C. difficile A-194): ≤ 0.25 µg/mL | MIC ([7]; Table 16, C. difficile A-195): ≤ 0.25 µg/mL | MIC ([7]; Table 16, C. difficile A-196): 0.5 µg/mL | MIC ([7]; Table 16, C. difficile A-279): ≤ 0.25 µg/mL | MIC ([7]; Table 16, C. difficile A-280): ≤ 0.25 µg/mL | MIC ([7]; Table 16, C. difficile A-281): 0.5 µg/mL | MIC [7, 32]: ≤ 0.25 µg/mL | MIC [7, 33]: ≤ 0.25 µg/mL | MIC [7, 34]: ≤ 0.25 µg/mL | MIC [8]: 0.5 µg/mL | MIC [9]: ≤ 0.125 µg/mL | ED50 [28]: 3.24 mg/kg | ED50 [29]: 2.21 mg/kg | ED50 [30]: 0.339 mg/kg | MIC ([10]; Haemophilus influenzae 76): 8 µg/mL | MIC ([10]; Haemophilus influenzae C.L.): 8 µg/mL | Solubility [11]: soluble in the same solvents as factor A | MIC [12]: 0.5 µg/mL | MIC ([13]; Bacteroides melaninogenicus 1856/28): > 64 µg/mL | MIC [13, 35]: 0.5 µg/mL | MIC [14]: 32 µg/mL | MIC [15]: 0.5 µg/mL | MIC [16]: 32 µg/mL | MIC [17]: 0.5 µg/mL | MIC [18]: 0.5 µg/mL | MIC ([19]; Streptococcus sp. Group D 9960): 1 µg/mL | MIC ([19]; Streptococcus sp. Group D X66): 1 µg/mL | MIC [20, 36]: 0.25 µg/mL | MIC [20, 37]: 1 µg/mL | pKa, first titratable group [21]: about 5.5 | pKa, second titratable group [21]: ~7.6 | MIC [31]: 64 µg/mL | MIC [22]: 0.25 µg/mL | MIC [23]: 0.25 µg/mL | MIC [24]: 1.0 µg/mL | MIC [25]: 32 µg/mL | MIC [26]: 0.5 µg/mL
